What was measured:
[1] = test system: Nippostrongylus brasiliensis; assay: Nippostrongylus brasiliensis (NIPOBR) assay, acetylcholine esterase readout; conditions: 10 ppm (10 μg/ml), adult worms, read-out: activity (reduction of AChE compared to negative control)
Method: Adult Nippostrongylus brasiliensis were washed with saline buffer containing 100 U/ml penicillin, 0.1 mg/ml streptomycin and 2.5 μg/ml amphotericin B. Test compounds were dissolved in DMSO and worms were incubated in medium in a final concentration of 10 μg/ml (10 ppm). An aliquot of the medium was used to determine the acetylcholine esterase activity in comparison to a negative control. The principle of measuring acetylcholine esterase as readout for anthelmintic activity was described in Rapson et al (1986) and Rapson et al (1987).

[2] = test system: Dirofilaria immitis microfilariae; assay: microbe, parasite or virus in culture; conditions: 72 h, read-out: EC50 (reduction of motility)
Cooperia curticei = Cooperia curticei (COOPCU) larval mortality assay; conditions: 120 h, application rate 20 ppm, after 5 days, read-out: activity (percentage of larval mortality)
Method: (§1) Solvent: dimethyl sulfoxide
(§2) To produce a suitable preparation of active compound, 10 mg of active compound are dissolved in 0.5 ml solvent, and the concentrate is diluted with “Ringer's solution” to the desired concentration.
Approximately 40 nematode larvae (Cooperia curticei) are transferred into a test tube containing the compound solution.
After 5 days percentage of larval mortality is recorded. 100% efficacy means all larvae are killed; 0% efficacy means no larvae are killed.

Haemonchus contortus = Haemonchus contortus (HAEMCO) larval mortality assay; conditions: 120 h; for mortality at 20 ppm: application rate 20 ppm, after 5 days, read-out: activity (percentage of larval mortality); for Emax at 0.8 ppm / Emax at 4 ppm / Emax at 20 ppm: comparative test, 5 dat, read-out: % Efficacy
Method: as §1, §2
Approximately 40 larvae of the red stomach worm (Haemonchus contortus) are transferred into a test tube containing compound solution.
After 5 days percentage of larval mortality are recorded. 100% efficacy means all larvae are killed, 0% efficacy means no larvae are killed.

Meloidogyne incognita = Meloidogyne incognita (MELGIN) gall formation assay; assay type: in vivo; conditions: 336 h, read-out: nematicidal activity (percentage of gall formation)
Method: Solvent: 125.0 parts by weight of acetone
To produce a suitable preparation of active compound, 1 part by weight of active compound is mixed with the stated amount of solvent, and the concentrate is diluted with water to the desired concentration.
Vessels are filled with sand, a solution of the active ingredient, a suspension containing eggs and larvae of the southern root-knot nematode (Meloidogyne incognita) and salad seeds. The salad seeds germinate and the seedlings grow. Galls develop in the roots.
After 14 days the nematicidal activity is determined on the basis of the percentage of gall formation. 100% means no galls were found and 0% means the number of galls found on the roots of the treated plants was equal to that in untreated control plants.

Structure (SMILES) | inhibition at 10 ppm [1] [%] | EC50 [2] [µg/mL] | mortality at 20 ppm (Cooperia curticei) [%] | mortality at 20 ppm (Haemonchus contortus) [%] | pest or weed control at 20 ppm (Meloidogyne incognita) [%] | Emax at 0.8 ppm (Haemonchus contortus) [%] | Emax at 4 ppm (Haemonchus contortus) [%] | Emax at 20 ppm (Haemonchus contortus) [%]
O=C(NCC(F)c1ccc(-c2cncc(Cl)c2)cc1Cl)c1ccccc1C(F)(F)F (stereo not shown) [Example 1-77] | ≥ 60 | < 5 | 100 | 100 | – | – | – | –
CC(F)(CNC(=O)c1ccccc1Cl)c1ccc(-c2cncc(F)c2)cc1Cl (stereo not shown) [Example 1-99] | ≥ 60 | < 5 | 100 | 100 | – | – | – | –
O=C(NCC(F)(F)c1ccc(-n2cc(C(F)(F)F)cn2)cc1Cl)c1ccccc1C(F)(F)F [Example 1-69, N-[2-[2-chloro-4-[4-(trifluoromethyl)pyrazol-1-yl]phenyl]-2,2-difluoro-ethyl]-2-(trifluoromethyl)benzamide] | ≥ 60 | – | 100 | 100 | 100 | 100 | 100 | 100
O=C(NCCc1ccc(-c2cncc(F)c2)cc1Cl)c1ccccc1C(F)(F)F [Example 1-37] | ≥ 60 | – | 100 | 100 | 90 | 100 | 100 | 100
O=C(NCC(F)c1ccc(-c2ccnc(F)c2)cc1Cl)c1ccccc1C(F)(F)F (stereo not shown) [Example 1-78] | ≥ 60 | < 5 | 100 | 100 | – | – | – | –
O=C(NCCc1ccc(-c2cccnc2Cl)cc1Cl)c1ccccc1C(F)(F)F [Example 1-48] | ≥ 60 | – | 100 | 100 | 90 | 80 | 100 | 100
O=C(NCC(F)c1ccc(-c2ccc(F)nc2)cc1Cl)c1ccccc1C(F)(F)F (stereo not shown) [Example 1-74] | ≥ 60 | < 5 | 100 | 100 | 90 | 100 | 100 | 100
O=C(NCC(F)(F)c1ccc(-n2cc(C(F)(F)F)cn2)cc1Cl)c1cccnc1C(F)(F)F [Example 1-89] | ≥ 60 | < 5 | 100 | 100 | 100 | – | – | –
O=C(NCC(F)c1ccc(-c2ccc(F)nc2)cc1Cl)c1nccnc1C(F)(F)F (stereo not shown) [Example 1-87] | ≥ 60 | – | 100 | 100 | 100 | – | – | –
CC(F)(CNC(=O)c1ccccc1Br)c1ccc(-c2cncc(F)c2)cc1Cl (stereo not shown) [Example 1-100] | ≥ 60 | < 5 | 100 | 100 | – | – | – | –
O=C(NCC(F)c1ccc(-c2ccc(C(F)(F)F)nc2)cc1Cl)c1ccccc1C(F)(F)F (stereo not shown) [Example 1-70] | ≥ 60 | < 5 | 100 | 90 | 100 | – | – | –
O=C(NCC(F)(F)c1ccc(-c2ccc(Cl)nc2)cc1Cl)c1ccccc1C(F)(F)F [Example 1-68] | ≥ 60 | – | 100 | 100 | 90 | – | – | –
O=C(NCC(F)c1ccc(-c2ccc(Cl)nc2)cc1Cl)c1ccccc1C(F)(F)F (stereo not shown) [Example 1-73, N-{2-[2-chloro-4-(6-chloropyridin-3-yl)phenyl]-2-fluoroethyl}-2-(trifluoromethyl) benzamide] | ≥ 60 | < 5 | 100 | 100 | 100 | – | – | –
O=C(NCC(F)(F)c1ccc(-c2ccc(F)nc2)cc1Cl)c1ccccc1C(F)(F)F [Example 1-93, N-[2-[2-chloro-4-(6-fluoro-3-pyridyl)phenyl]-2,2-difluoro-ethyl]-2-(trifluoromethyl)benzamide] | ≥ 60 | < 5 | 100 | 100 | 100 | 100 | 100 | 100

Source: patent publication US20170044104A1, “NEW PESTICIDAL COMPOUNDS AND USES” (BAYER CROPSCIENCE AG, priority 2013, published 2017)
